Values of other authors, collected in patent US11065260B1, “Method of treatment for reducing pulmonary inflammation in a patient with pathogen infection using oral prostacyclin analog drugs” (priority 2020, dated 2021).

Experiments:
COVID-19 [1] = conditions: several small trials
[2] = patients with pulmonary hypertension and ARDS
[3] = in vivo, po
[4] = within 1 hour, pH 7.4 phosphate buffer, optimal formulation
pulmonary inflammation = conditions: several animal studies
[5] = human, in vivo, inhaled or intranasal
[6] = human, in vivo, po
[7] = human, in vivo
COVID-19 [8] = conditions: randomized clinical trial of 199 patients

For CCN(CCO)CCCC(C)Nc1ccnc2cc(Cl)ccc12 (stereo not drawn) [hydroxychloroquine], the clinical results (COVID-19 [1]) is listed as “mixed results”.

In the case of CC#CCC(C)[C@H](O)/C=C/[C@@H]1[C@H]2C/C(=C/CCCC(=O)O)C[C@H]2C[C@H]1O (stereo partly drawn) [iloprost], the gas exchange [2] is listed as “improved”, the “IL-2 and RANKL” value (T cells) is listed as “increasing” and the “TNF-α production by T cells” value (T cells) is listed as “reducing”. For the same compound, the “number of T regulatory cells” value (T cells) was “reducing”, the steady-state serum levels [3] was 260 pg/mL and the “production of interleukin IL-6” value (human monocytes) was “inhibit”. The “production of intracellular TNF-α” value (human monocytes) was “inhibit”, the “in vitro dissolution of the dose” value [4] was 60% and the pulmonary inflammation (pulmonary inflammation) was “reduce pulmonary inflammation”. The half-life [5] was 20 to 30 min, the “adverse effects leading to discontinuation of dose escalation” value [6] was “flushing and headache” and the bioavailable dose fraction [6] was “highest”. For the same compound, the “duration of half-maximal serum levels (mean)” value [6] was 2.4 h, the “duration of therapeutic serum levels” value [6] was 2.1 to 5.0 h and the contraindications [7] was “no contraindications”. The side effects [7] was “minimal side effects”.

For lopinavir-ritonavir, the clinical benefit (COVID-19 [8]) is given as “No benefit”.
